Laboratory results: US20090136470A1, “REGULATORY T CELLS AND METHODS OF MAKING AND USING SAME” (priority 2007, published 2009)

Columns and labels:
[1] = system: CD4^+T cells from small intestine lamina propria and spleen; assay: Oral Listeria monocytogenes infection (and naïve mice) treated with RA or LE540: IL-17^+ and Foxp3^+ CD4 T cells; assay type: in vivo, mouse
From the text: Listeria monocytogenes (strain WT LMOVA) was used. Mice were orally infected (gavage) with 5×10^8 CFU of L. monocytogenes. Mice received i.p. injections of vehicle, RA or LE540 on the same day and 2 days after infection. Mice were sacrificed 5 days post-infection for analysis.
Every second day, in a interval of two weeks, naïve mice received gavage of either vehicle, RA or LE540.
Liver lymphocytes were isolated using 37.5% isotonic Percoll (GE Healthcare, USA), as previously described [Y. Kinjo et al, Nat Immunol 7, 978 (2006)]. Intestinal lymphocytes were isolated and prepared as previously described [Aranda et al., J Immunol 158, 3464 (1997)]. Briefly, small and large intestines were removed and placed in chilled HBSS media containing 5% FCS. The intestines were carefully cleaned from the mesentery and flushed of fecal content. Intestines were opened longitudinally and then cut into 1 cm pieces. The intestinal tissue was transferred to a 250-ml Erlenmeyer flasks containing 25 ml of preheated HBSS complemented with 2% FCS and 1 mM DTT (Sigma, USA) and shaken at 200 rpm for 40 min at 37° C. The tissue suspension was passed through a stainless steel sieve into 50-ml conical tubes and the cells were pelleted by centrifugation at 1200 rpm for 10 min at 4° C. The cell pellet was resuspended in complete HBSS, layered over a discontinuous 40/70% Percoll gradient, and centrifuged at 2000 rpm for 30 min. Cells from the 40/70% interface were collected, washed and resuspended in complete RPMI media. These purified cells constituted the intraepithelial lymphocyte (IEL) population. To isolate the lamina propria lymphocytes (LPL), the remaining intestinal tissue in the stainless steel sieve was minced and transferred to conical tubes. The minced pieces were resuspended in 20 ml of complete RPMI containing 1 mg/ml of collagenase (Sigma, USA) and shaken at 200 rpm for 40 min at 37° C. The tissue suspension was collected and passed through a 70 μm cell strainer and the cells were pelleted by centrifugation at 1200 rpm. The cells were then resuspended and layered onto a 40/70% Percoll gradient, centrifugated and processed as described above for the IEL preparation.
(§1) To block non-specific staining, the 2.4G2 anti-CD16/32 antibody was added. […] For intracellular cytokine staining, cells obtained from in vitro cultures or isolated IELs were incubated for 4-5 hours with 50 ng/ml PMA, 750 ng/ml Ionomycin (both Sigma, USA) and 10 μg/ml Brefeldin A (Invitrogen, USA) in a tissue culture incubator at 37° C.
For Foxp3 staining, no stimulation with PMA/Ionomycin was performed, with the exceptions of FIGS. 8B and 9A. In these cases, the time of incubation with PMA/Ion was reduced to 3.5 hours. Intracellular Foxp3 staining was performed as per the eBioscience's Foxp3-staining kit protocol.

CD4^+CD25^−T cells = assay: CTLA-4, CD103, CCR9 and CD25 staining of CD4 T cells stimulated with spleen APCs plus TGF-β1 and/or RA; assay type: cell-based, mouse
Method: For CD4^+CD25^− T cell isolation, spleens were removed, teased into cell-single suspensions and filtered through a 70 μm cell strainer (Fisher Scientific, USA). CD4^+CD25^−T cells were isolated by negative selection after incubation with a mix of specific biotin-conjugated mAbs (anti-CD8, CD11b, CD11ε, CD25, CD45R (B220), NK1.1, and TER119) at 1/200 dilution, and anti-biotin magnetic microbeads (25-40 μl per spleen) (Miltenyi Biotec, USA).
APCs were isolated from spleen of C57BL/6 mice by negative selection using CD90.2 (Thy1.2) magnetic microbeads to deplete T cells (Miltenyi Biotec).
The culture medium used for dendritic cell-T cell cultures was Iscove's modified Dulbecco medium (IMDM) (Gibco, USA) supplemented with 10% heat-inactivated FCS, 2 mM L-glutamine, 100 U/ml penicillin, 100 μg/ml streptomycin, and 5 mM β-mercaptoethanol (all Sigma, USA). […] For dendritic cell-T cell cultures, 2×10^4 dendritic cells and 1×10^5 T cells were cultured in a volume of 200 μl (96-well plates). For irradiated APC-T cell cultures, 5×10^5 APCs and 1×10^5 T cells were cultured in a volume of 200 μl in 96-well plates (2×10^6 APCs and 0.5×10^6 T cells per well in 48-well plates). […] For the study shown in FIG. 4A, after sorting of naive CD4^+ cells (CD25^−CD44^lowCD62L^+), cells were washed twice in PBS+0.1% BSA, counted and labeled with 2 μM of CFSE (Carboxyfluorescein diacetate, succinimidyl ester) (Molecular Probes, USA) at a concentration of 5−10×10^6 cells per ml in PBS-0.1% BSA.
as §1

RAR = conditions: cited from earlier work

In the case of `CC1=C(/C=C/C(C)=C/C=C/C(C)=C/C(=O)O)C(C)(C)CCC1` [RA, All-trans retinoic acid], the “Th-17 mucosal T cells (IL-17 staining of CD4^+T cells, small intestine lamina propria)” value ([1]; 5 days after oral L. monocytogenes infection, i.p. days 0 and 2, RA 300 μg/mouse, LE540 100 μg/mouse) is reported as “measurable reduction”, the “differentiation / number of mucosal Foxp3^+Treg cells (small intestine lamina propria)” value ([1]; Lm challenged mice, 5 days after oral infection) is reported as “not found to measurably enhance” and the “spleen Foxp3^+CD4 cells” value ([1]; Lm infected mice (2 i.p. injections) and naïve mice (2-week gavage)) is reported as “No effect”. For the same compound, the “expression of CTLA-4 on TGF-β-generated Foxp3^+ cells” value (CD4^+CD25^−T cells) was “promoted the expression of CTLA-4”, the “induction of CTLA-4 on Foxp3^− and Foxp3^+ activated cells (early)” value (CD4^+CD25^−T cells; OT-II CD4 T cells, spleen APCs, TGF-β and RA) was “delayed” and the “CTLA-4 and Foxp3 phenotype of the majority of cells at later time-points” value (CD4^+CD25^−T cells; OT-II CD4 T cells, spleen APCs, cultured with TGF-β and RA) was “both CTLA-4 and Foxp3^+”. For the same compound, the “TGF-β-mediated CD103 expression on CD4 cells” value (CD4^+CD25^−T cells; soluble α-CD3ε, spleen APCs, TGF-β1) was “greatly enhanced” and the “binding to RAR-RAR homodimers and RAR-RXR heterodimers” value (RAR) was “can bind”.
